{"source": "patent US8148095B2", "about": "“Methods for predicting psychotropic drugs which elicit weight gain” (The Johns Hopkins University, priority 2006, dated 2012)", "key": {"hypothalamic AMPK": {"tested_on": "hypothalamic AMPK", "test": "Phospho-AMPK in hypothalamic slices by Western blotting", "assay_type": "cell-based, mice", "conditions": "30 min; for levels of phospho-AMPK: 500 nM drug; for effect on hypothalamic phospho-AMPK: various concentrations", "excerpt": "FIGS. 1A-1F. AAPDs activate AMPK in hypothalamic slices.\nThe slices were dispersed in artificial cerebrospinal fluid buffer."}, "AMPK": {"tested_on": "AMPK", "test": "Phospho-AMPK in tissues of intact mice by Western blotting", "assay_type": "in vivo", "conditions": "for stimulation of hypothalamic phospho-AMPK in intact animals: triprolidine 3 mg/kg i.p., 3 h", "method": "(§1) FIGS. 2A-2D. AAPDs activate AMPK in intact animals. […] Hypothalami were removed and tissue lysates analyzed for phospho-AMPK or α2-AMPK activity. […] Different parts of brain were isolated and α2-AMPK activity was assayed. Bars represent the mean±SE of three independent lysates performed in triplicate. (* Student's t-test, n=5)\nFIGS. 5A-5F. […] Cerebellum and liver were removed and phosphorylated AMPK (AMPK-P) detected by western blotting. Each lane represents tissue from individual mouse. […] Hypothalamus, cerebellum and liver were removed and phosphorylated AMPK (AMPK-P) detected by western blotting. Each lane represents a tissue from individual mouse. […] Hypothalamus and cerebellum were removed and phosphorylated AMPK (AMPK-P) detected by western blotting. Each lane represents a tissue from individual mouse. […] Hypothalami were removed and phosphorylated AMPK (AMPK-P) detected by western blotting. Each lane represents a tissue from an individual mouse. […] Hypothalami were removed and AMPK activity monitored as described in Material and Methods. Bars represent the mean±SE of three independent lysates performed in triplicate.\n(§2) Experiments were done at age 8-10 weeks. All drugs were administered by i.p. injection. […] Procedures were approved by guidelines of the Johns Hopkins University School of Medicine Institutional Animal Care and Use Committee.\nAll drugs were purchased from Toronto Research Chemicals Inc. (Toronto, Canada). […] The drug was diluted with 8.5 ml saline solution, and the appropriate doses were administrated to mice. For control mice, the same solution was injected without a drug. For in vitro assays, drugs were dissolved in DMSO."}, "histamine H1 receptors": {"molecular_target": "T1, histamine H1 receptors (Rattus norvegicus, UniProt P31390)", "T1 construct": "from tissue; host or cells: rat forebrain membranes", "T1 sequence (P31390 whole entry)": "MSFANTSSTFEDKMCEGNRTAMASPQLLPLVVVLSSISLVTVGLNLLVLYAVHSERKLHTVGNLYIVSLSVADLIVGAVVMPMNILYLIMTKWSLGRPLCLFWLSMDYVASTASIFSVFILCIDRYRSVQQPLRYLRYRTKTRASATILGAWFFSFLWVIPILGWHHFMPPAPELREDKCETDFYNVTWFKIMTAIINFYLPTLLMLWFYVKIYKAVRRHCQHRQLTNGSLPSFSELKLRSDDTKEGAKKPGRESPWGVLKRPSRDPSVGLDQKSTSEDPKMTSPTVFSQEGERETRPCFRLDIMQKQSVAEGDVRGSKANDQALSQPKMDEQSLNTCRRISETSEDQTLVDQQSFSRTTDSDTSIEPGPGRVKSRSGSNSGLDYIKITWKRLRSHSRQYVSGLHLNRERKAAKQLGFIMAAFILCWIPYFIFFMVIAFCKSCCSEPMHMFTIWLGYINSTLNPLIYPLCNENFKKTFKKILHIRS", "test": "Histamine H1 receptor binding, [3H]mepyramine displacement in rat brain membranes", "conditions": "12 concentrations 30 pM to 10 μM, means of 3 determinations", "method": "Receptor binding was assayed using rat brain membranes incubated with [^3H]mepyramine and 12 concentrations of drugs ranging from 30 pM to 10 μM in triplicate. […] Hypothalamic Slices\nBriefly, rats were killed by decapitation and the forebrains removed. Brains were homogenized in 30 vol of Na-K phosphate buffer, pH 7.5, and centrifuged at 48,000×g for 10 min. The tissue was resuspended in buffer and re-centrifuged for an additional 3 times. Tissue was resuspended in buffer at 15 mg/ml.\nTissue (0.2 ml) was added to tubes containing 25 μl of drug and 25 μl of [3H]mepyramine (30 nM). Non-specific binding was determined in the presence of 1 μM triprolidine."}, "phospho-AMPK": {"tested_on": "phospho-AMPK", "conditions": "ziprasidone 3 mg/kg i.p., 3 h", "quoted_text": "Immunohistochemistry was performed with an antibody specific for phospho-AMPK. (FIG. 4D) Quantification of immunohistochemistry. Bars represent the mean±SE of five independent slides. (*p<0.005, **p<0.001 Student's t-test, n=5)\nC57BL/6 mice or HR1−/− mice (8-10 weeks) were perfused with 4% paraformaldehyde maintained at 37° C. Organs were post-fixed 2 h at room temperature and cryoprotected overnight at 4° C. (30% sucrose in PBS). Free-floating sections (45 μm) were quenched with 3% H2O2 in water for 10 min at room temperature, washed in TBS-T (16 mM Tris pH 7.4, 140 mM sodium chloride, and 0.1% tween-20), and antigen retrieved for 30 min in a 70° C. water bath (10 mM sodium citrate in TBS-T). Sections were blocked (5% NGS in TBS-T) for 1 h at room temperature and incubated with a mouse anti-phospho-AMPKα antibody (Cell Signaling, Danvers, Mass.) diluted 1:200 into the blocking solution overnight at 4° C. Subsequent washes were conducted in TBST, and labeling was visualized with the Vectastain Elite ABC kit (Vector Laboratories, Burlingame, Calif.). Images were quantified with AlphaEaseFC program."}, "α2-AMPK": {"tested_on": "α2-AMPK", "test": "α2-AMPK activity in tissue lysates of intact mice", "assay_type": "in vivo", "conditions": "leptin 3 mg/kg", "method": "as §1, §2"}}, "note": "Like-named read-outs stand apart in the source and are kept apart here."}
{"compound": "Cc1nc2n(c(=O)c1CCN1CCC(c3noc4cc(F)ccc34)CC1)CCCC2", "note": "[Risperidone]", "values": [{"measurement": "levels of phospho-AMPK", "setting": "hypothalamic AMPK", "value": "fail to stimulate"}]}
{"compound": "Cc1ccc(/C(=C\\CN2CCCC2)c2ccccn2)cc1", "note": "[triprolidine]", "values": [{"measurement": "stimulation of phospho-AMPK", "setting": "hypothalamic AMPK; triprolidine 50 or 500 nM vs clozapine 200 nM", "value": "to the same extent as clozapine"}, {"measurement": "stimulation of hypothalamic phospho-AMPK in intact animals", "setting": "AMPK", "value": "to the same extent as clozapine"}, {"measurement": "stimulation of hypothalamic phospho-AMPK in intact animals", "setting": "AMPK; listed as Triprolidine", "value": "activates"}]}
{"compound": "insulin", "values": [{"measurement": "effect on hypothalamic phospho-AMPK", "setting": "hypothalamic AMPK", "value": "reductions"}]}
{"compound": "O=C(CCCN1CCC(O)(c2ccc(Cl)cc2)CC1)c1ccc(F)cc1", "note": "[Haloperidol]", "values": [{"measurement": "levels of phospho-AMPK", "setting": "hypothalamic AMPK", "value": "fail to stimulate"}]}
{"compound": "NCCc1c[nH]cn1", "note": "[histamine]", "values": [{"measurement": "effect of histamine on phospho-AMPK", "setting": "hypothalamic AMPK; different concentrations of histamine", "value": "decreases"}]}
{"compound": "O=C1Cc2cc(CCN3CCN(c4nsc5ccccc45)CC3)c(Cl)cc2N1", "note": "[Ziprasidone]", "values": [{"measurement": "IC50", "setting": "histamine H1 receptors", "value": 0.15, "unit": "µM"}, {"measurement": "levels of phospho-AMPK", "setting": "hypothalamic AMPK", "value": "fail to stimulate"}, {"measurement": "phospho-AMPK in the paraventricular nucleus / hypothalamus", "setting": "phospho-AMPK", "value": "fails to alter"}, {"measurement": "phospho-AMPK in the paraventricular nucleus / hypothalamus", "setting": "phospho-AMPK; listed as Ziprasodine", "value": "no effect"}]}
{"compound": "O=C1CCc2ccc(OCCCCN3CCN(c4cccc(Cl)c4Cl)CC3)cc2N1", "note": "[Aripipirazole]", "values": [{"measurement": "IC50", "setting": "histamine H1 receptors", "value": "> 3", "unit": "µM"}, {"measurement": "levels of phospho-AMPK", "setting": "hypothalamic AMPK", "value": "fail to stimulate"}]}
{"compound": "leptin", "values": [{"measurement": "effect on hypothalamic phospho-AMPK", "setting": "hypothalamic AMPK", "value": "reductions"}, {"measurement": "hypothalamic phospho-AMPK", "setting": "AMPK; intact mice, leptin 3 mg/kg", "value": "reduces"}, {"measurement": "hypothalamic AMPK catalytic activity", "setting": "α2-AMPK", "value": "reduces"}]}
